The assay concerns the target glucosylceramide synthase (GCS) (Homo sapiens (Human), UniProt Q16739). As to the kind of experiment: UDP-Glo glucosylceramide synthase biochemical assay. The conditions noted are these: endogenous GCS in Golgi preparations from human A375 malignant melanoma skin cells; C6 ceramide and UDP-glucose substrates; 20 h incubation; UDP detected by luminescence. A digest of the protocol:
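Endogenous GCS in Golgi preparations from A375 melanoma cells (1.5 μg total protein) preincubated 30 min at room temperature with compound. UDP-glucose and ceramide then added for 20 h at room temperature; UDP measured by luciferase luminescence. Normalized to DMSO (0%) and reference inhibitor (100%); EC50 and % Emax from 4PL fit.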
glucosylceramide synthase (GCS), sequence (Q16739 whole entry): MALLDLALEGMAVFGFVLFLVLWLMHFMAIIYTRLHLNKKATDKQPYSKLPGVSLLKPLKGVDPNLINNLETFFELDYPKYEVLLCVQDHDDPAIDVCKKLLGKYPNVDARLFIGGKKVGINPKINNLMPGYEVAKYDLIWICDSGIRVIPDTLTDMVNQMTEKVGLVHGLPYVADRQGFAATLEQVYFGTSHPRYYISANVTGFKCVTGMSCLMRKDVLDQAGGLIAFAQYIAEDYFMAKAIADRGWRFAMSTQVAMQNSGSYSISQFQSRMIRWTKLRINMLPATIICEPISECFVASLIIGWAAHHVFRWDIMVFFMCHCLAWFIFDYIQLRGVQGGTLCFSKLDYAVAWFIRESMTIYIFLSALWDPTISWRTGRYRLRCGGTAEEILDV
On to `O=C(N[C@H]1C[C@@H](O)C1)c1cc2c(-c3ccccc3OCC(F)(F)F)cccc2cn1` [Compound 84], for which the response was half-maximal at 16 nM (EC50).
The same measure for `CC1(O)CCC(NC(=O)c2cn3cc(F)cc(-c4ccccc4OCC(F)(F)F)c3n2)CC1` (stereo not drawn) [Compound 26, cis or trans-6-fluoro-N-(4-hydroxy-4-methylcyclohexyl)-8-(2-(2,2,2-trifluoroethoxy)phenyl)imidazo[1,2-a]pyridine-2-carboxamide]: 0.79 nM.
Turning to `CC(C)(O)C1COC(c2cn3cc(Cl)cc(-c4ccccc4OCC(F)(F)F)c3n2)=N1` (stereo not drawn) [Compound 75, 2-(2-(6-chloro-8-(2-(2,2,2-trifluoroethoxy)phenyl)imidazo[1,2-a]pyridin-2-yl)-4,5-dihydrooxazol-4-yl)propan-2-ol], the EC50 (as a rule, the concentration needed to bring the measured effect to its halfway point) came out at 30 nM.
The same measure for `O=C(N[C@H]1CC[C@@H](CO)CC1)c1cn2cc(F)cc(-c3ccccc3OCC(F)(F)F)c2n1` [Compound 27, 6-fluoro-N-(cis-4-(hydroxymethyl)cyclohexyl)-8-(2-(2,2,2-trifluoroethoxy)phenyl)imidazo[1,2-a]pyridine-2-carboxamide]: 1.3 nM; for `O=C(Nc1ccc2c(F)ccc(-c3ccccc3OCC(F)(F)F)c2n1)[C@H]1C[C@H](O)C1` [Compound 83, trans-N-(5-fluoro-8-(2-(2,2,2-trifluoroethoxy)phenyl)quinolin-2-yl)-3-hydroxycyclobutane-1-carboxamide]: 6.9 nM; for `O=C(N[C@H]1CC[C@H](O)C[C@H]1F)c1cn2cc(Cl)cc(-c3ccccc3OCC(F)(F)F)c2n1` (mixture of isomers) [Compound 22, 6-chloro-N-((1S,2R,4S and 1R, 2S,4R)-2-fluoro-4-hydroxycyclohexyl)-8-(2-(2,2,2-trifluoroethoxy)phenyl)imidazo[1,2-a]pyridine-2-carboxamide]: 0.72 nM.
The same measure for `O=C(Nc1ccc[n+]([O-])c1)c1cn2cccc(-c3ccccc3OCC(F)(F)F)c2n1` [Compound 58, 3-(8-(2-(2,2,2-trifluoroethoxy)phenyl)imidazo[1,2-a]pyridine-2-carboxamido)pyridine-1-oxide]: 28 nM; for `NCC1CN=C(c2cn3cc(Cl)cc(-c4ccccc4OCC(F)(F)F)c3n2)O1` (stereo not drawn) [Compound 74, (2-(6-chloro-8-(2-(2,2,2-trifluoroethoxy)phenyl)imidazo[1,2-a]pyridin-2-yl)-4,5-dihydrooxazol-5-yl)methanamine]: 12 nM; for `CC(C)(C)NCc1cn2cccc(-c3ccccc3OCC(F)(F)F)c2n1` [Compound 79, 2-methyl-N-((8-(2-(2,2,2-trifluoroethoxy)phenyl)imidazo[1,2-a]pyridin-2-yl)methyl)propan-2-amine]: 140 nM.
`CN1CC2(CN=C(c3cn4cc(Cl)cc(-c5ccccc5OCC(F)(F)F)c4n3)O2)C1` [Compound 70, 6-[6-chloro-8-[2-(2,2,2-trifluoroethoxy)phenyl]imidazo[1,2-a]pyridin-2-yl]-2-methyl-5-oxa-2,7-diazaspiro[3.4]oct-6-ene] returned an EC50 of 0.061 nM.
The same measure for `CC(C)(O)c1cn2cc(Cl)cc(-c3ccccc3OCC(F)(F)F)c2n1` [Compound 66, 2-(6-chloro-8-(2-(2,2,2-trifluoroethoxy)phenyl)imidazo[1,2-a]pyridin-2-yl)propan-2-ol]: 15 nM; for `O=C(Nc1ccc2cccc(-c3ccccc3OCC(F)(F)F)c2n1)[C@H]1C[C@H](O)C1` [Compound 82, trans-3-hydroxy-N-(8-(2-(2,2,2-trifluoroethoxy)phenyl)quinolin-2-yl)cyclobutane-1-carboxamide]: 3 nM.
The same measure for `O=C(NC1CCCOC1)c1cn2cccc(-c3ccccc3OCC(F)(F)F)c2n1` (single isomer, unassigned) [Compound 2, (R or S)-N-(tetrahydro-2H-pyran-3-yl)-8-(2-(2,2,2-trifluoroethoxy)phenyl)imidazo[1,2-a]pyridine-2-carboxamide]: 6.1 nM; for `O=C(NC12CC(CO)(C1)C2)c1cn2cccc(-c3ccccc3OCC(F)(F)F)c2n1` [Compound 47, N-(3-(hydroxymethyl)bicyclo[1.1.1]pentan-1-yl)-8-(2-(2,2,2-trifluoroethoxy)phenyl)imidazo[1,2-a]pyridine-2-carboxamide]: 9.2 nM; for `O=C(NCc1ccccn1)c1cn2cccc(-c3ccccc3OCC(F)(F)F)c2n1` [Compound 52, N-(pyridin-2-ylmethyl)-8-(2-(2,2,2-trifluoroethoxy)phenyl)imidazo[1,2-a]pyridine-2-carboxamide]: 13 nM.

The record behind these values is patent publication US20240018140A1, “MODIFIED IMIDAZOPYRIDINES AS GLUCOSYLCERAMIDE SYNTHASE INHIBITORS” (Merck Sharp & Dohme LLC, priority 2020, published 2024).
